Patent US8022203B2, “Amino derivatives of beta-homoandrostanes and beta-heteroandrostanes” (Sigma-Tau Industrie Farmaceutiche Riunite S.p.A., priority 2006, dated 2011)
Counter-ions that a name gives are not always drawn. Like-named read-outs stand apart in the source and are kept apart here.

How the values were obtained:
[1] = molecular target: Na^+,K^+-ATPase (Canis lupus familiaris, UniProt P50997); experiment: Dog kidney Na+,K+-ATPase inhibition (hydrolysis of 32P-ATP); format: biochemical
[2] = test system: spontaneous hypertensive rats of the Milan (MHS); experiment: Systolic blood pressure fall in spontaneous hypertensive rats (MHS), tail-cuff; format: in vivo, rat; conditions: five weeks, vs vehicle control
[3] = test system: anesthetized guinea-pig; experiment: Inotropic effect and lethal dose, slow intravenous infusion in anesthetized guinea-pig; conditions: for % decrease from Emax after 20 min from the end of the infusion: 20 minutes after the end of the infusion; for Lethal dose/ED80: calculated in the died animals; for Maximum dose infused: in the survived animals; for Dead/treated / ED80 (dose increasing +dP/dTmax by 80%) / EDmax (dose inducing maximum positive inotropic effect) / Emax % increase in +dP/dTmax: slow intravenous infusion over 90 minutes; for safety ratio compared with reference cardiotonics / duration of the inotropic effect: in words; for duration of the inotropic effect: after stopping the infusion
[4] = test system: hypertensive ouabain-sensitive rats (OS rats); experiment: Systolic blood pressure fall in hypertensive ouabain-sensitive rats (OS rats), tail-cuff; format: in vivo, rat; conditions: 10 μg/kg/day by mouth, four weeks
Method: The ability of these compounds to lower blood pressure was tested by using animal models with genetic arterial hypertension, in particular, spontaneous hypertensive rats of the Milan (MHS) (Bianchi G., Ferrari P., Barber B. The Milan Hypertensive strain. In Handbook of hypertension. Vol. 4: Experimental and genetic models of hypertension. Ed. W. de jong-Elsevier Science Publishers B.V., 1984:328-349) and rats made hypertensive by chronic infusion of ouabain, according to Ferrari P., et al. J. Pharm. Exp. Ther. 1998, 285, 83-94.
The procedure adopted to test the antihypertensive activity of the compounds on the above mentioned model was the following: systolic blood pressure (SBP) and heart rate (HR) were measured by an indirect tail-cuff method.
SBP and HR were measured weekly 6 hours after the treatment.

[5] = dog kidney enzyme, read-out: Na^+,K^+-ATPase Inhibition IC50
[6] = Na^+,K^+-ATPase Inhibition IC50

| SMILES | SBP - % ([2]; 10 μg/kg/os daily) | SBP - mm Hg (decrease in systolic blood pressure) ([2]; 10 μg/kg/os daily) | % decrease from Emax after 20 min from the end of the infusion [3] | Maximum dose infused [3] | Dead/treated [3] | ED80 (dose increasing +dP/dTmax by 80%) [3] | EDmax (dose inducing maximum positive inotropic effect) [3] | Emax % increase in +dP/dTmax [3] | IC50 [1, 6] | further results |
| --- | --- | --- | --- | --- | --- | --- | --- | --- | --- | --- |
| C[C@]12CCC(=NOCCN)CC1C(=O)C[C@@H]1[C@@H]2CC[C@]2(C)C(=O)CC[C@@H]12.Cl (mixture of isomers) [Compd. 22b, (EZ) 3-(2-aminoethoxyimino)androstane-6,17-dione hydrochloride, reference compound] | 2.2% | 3.6 +/− 4.8 mm Hg | 100% | 32.1 µmol/kg | 7/8 | 1.82 µmol/kg | 5.74 µmol/kg | 182% | – | IC50 [1, 5]: 0.33 µM; SBP - % ([2]; 100 μg/kg/os daily): 6.6%; SBP - mm Hg (decrease in systolic blood pressure) ([2]; 100 μg/kg/os daily): 10.7 +/− 7.5 mm Hg; Lethal dose/ED80 [3]: 22.6 |
| CC12CCC3C(CC(=O)NC4CC(=NOCCN)CCC43C)C1CCC2=O (stereo not shown) [I-aa, (E,Z) 3-(2-Aminoethoxyimino)-6-aza-7a-homoandrostane-7,17-dione hydrochloride] | 7.1% | 12.3 +/− 1.1 mm Hg | – | – | – | – | – | – | 25 µM | SBP - % [4]: 10.0%; SBP - mm Hg (fall) [4]: 17.0 mm Hg; SBP mm Hg [4]: 153.0 mm Hg; SBP - % ([2]; 0.001 μg/kg/os daily): 0.0%; SBP - mm Hg (decrease in systolic blood pressure) ([2]; 0.001 μg/kg/os daily): 1.0 +/− 1.1 mm Hg; SBP - % ([2]; 0.01 μg/kg/os daily): 5.2%; SBP - mm Hg (decrease in systolic blood pressure) ([2]; 0.01 μg/kg/os daily): 8.8 +/− 1.6 mm Hg; SBP - % ([2]; 0.1 μg/kg/os daily): 6.5%; SBP - mm Hg (decrease in systolic blood pressure) ([2]; 0.1 μg/kg/os daily): 11.3 +/− 1.5 mm Hg; SBP - % ([2]; 1 μg/kg/os daily): 6.0%; SBP - mm Hg (decrease in systolic blood pressure) ([2]; 1 μg/kg/os daily): 10.0 +/− 2.1 mm Hg |
| CNCCCON=C1CCC2(C)C(C1)NC(=O)CC1C3CCC(=O)C3(C)CCC12 (stereo not shown) [I-ac, (E,Z) 3-(3-N-Methylaminopropoxyimino)-6-aza-7a-homoandrostane-7,17-dione fumarate] | 4.2% | 7.2 +/− 0.7 mm Hg | – | – | – | – | – | – | – | IC50 [1, 5]: 19 µM |
| CC12CCC3C(CCN(C=O)C4CC(=NOC5CCNC5)CCC34C)C1CCC2=O [I-ap, (E,Z) 3-[3-(R)-Pyrrolidinyl]oxyimino-6-aza-6-formyl-7a-homoandrostane-17-one hydrochloride] | – | – | – | – | – | – | – | – | 35 µM | SBP - % [4]: 9.4%; SBP - mm Hg (fall) [4]: 15.0 mm Hg; SBP mm Hg [4]: 154.0 mm Hg |
| CC12CCC3C(NCCC4CC(=NOC5CCNC5)CCC43C)C1CCC2=O [I-ba, (E,Z) 3-[3-(R)-Pyrrolidinyl]oxyimino-7a-aza-7a-homoandrostane-17-one Difumarate] | – | – | 55% | 50.0 µmol/kg | 0/3 | 1.68 µmol/kg | 10.1 µmol/kg | 218% | 0.14 µM | safety ratio compared with reference cardiotonics [3]: higher safety ratios than those displayed by digitoxin and compd 22b; duration of the inotropic effect [3]: prolonged action |
| CC12CCC3C(OC(=O)CC4CC(=NOC5CCNC5)CCC43C)C1CCC2=O [I-bk, (E,Z) 3-[3-(R)-Pyrrolidinyl]oxyimino-7a-oxa-7a-homoandrostane-7,17-dione hydrochloride] | – | – | 50% | 25.3 µmol/kg | 0/3 | 2.11 µmol/kg | 23.9 µmol/kg | 254% | 0.36 µM | safety ratio compared with reference cardiotonics [3]: higher safety ratios than those displayed by digitoxin and compd 22b; duration of the inotropic effect [3]: prolonged action |
| C[C@H]1O[C@@H](O[C@H]2[C@@H](O)C[C@H](O[C@H]3[C@@H](O)C[C@H](O[C@H]4CC[C@@]5(C)[C@H](CC[C@@H]6[C@@H]5C[C@@H](O)[C@]5(C)[C@@H](C7=CC(=O)OC7)CC[C@]65O)C4)O[C@@H]3C)O[C@@H]2C)C[C@H](O)[C@@H]1O [digoxin, reference compound] | – | – | 100% | 1.16 µmol/kg | 10/10 | 0.29 µmol/kg | 0.65 µmol/kg | 158% | – | Lethal dose/ED80 [3]: 4.0 |
